In ChEMBL document CHEMBL1149471, “Pharmacophore-based virtual screening: the discovery of novel methionyl-tRNA synthetase inhibitors” (Bioorg Med Chem Lett, 2006):

Biological target: Methionine--tRNA ligase (Escherichia coli K-12, UniProt P00959)
Test: Inhibition of Escherichia coli MetRS assessed as decrease in [35S]methionyl tRNAMet production by SPA

Sequence of Methionine--tRNA ligase (P00959 whole entry): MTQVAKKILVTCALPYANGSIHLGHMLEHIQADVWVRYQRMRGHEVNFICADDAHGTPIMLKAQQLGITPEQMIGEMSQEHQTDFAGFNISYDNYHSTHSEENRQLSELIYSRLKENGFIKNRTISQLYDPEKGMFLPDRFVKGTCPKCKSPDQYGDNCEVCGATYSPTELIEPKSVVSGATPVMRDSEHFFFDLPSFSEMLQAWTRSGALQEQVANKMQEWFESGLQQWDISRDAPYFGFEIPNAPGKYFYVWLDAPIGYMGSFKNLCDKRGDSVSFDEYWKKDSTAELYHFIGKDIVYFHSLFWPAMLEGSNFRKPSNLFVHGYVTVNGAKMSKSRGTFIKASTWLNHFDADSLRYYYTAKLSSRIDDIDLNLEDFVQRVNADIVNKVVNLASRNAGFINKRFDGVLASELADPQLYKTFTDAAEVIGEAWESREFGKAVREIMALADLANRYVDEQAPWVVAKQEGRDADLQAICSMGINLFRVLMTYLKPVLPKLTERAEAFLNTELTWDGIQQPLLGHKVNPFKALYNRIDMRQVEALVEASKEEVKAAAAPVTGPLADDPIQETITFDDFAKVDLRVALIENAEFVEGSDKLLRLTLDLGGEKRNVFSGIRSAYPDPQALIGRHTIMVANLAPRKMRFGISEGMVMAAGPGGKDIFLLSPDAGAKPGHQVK

IC50 | Compound
30.5 µM | O=C(CC(=O)Nc1ccccc1C(=O)O)Nc1nc2ccc(Br)cc2s1
0.237 µM | O=C(CNC(=O)c1cccs1)N/N=C/c1ccc(C(=O)O)cc1
47.7 µM | NS(=O)(=O)c1ccc(CCNC(=S)Nc2cccc(C(F)(F)F)c2)cc1
22.8 µM | O=C(CNC(=O)c1cccc(Br)c1)N/N=C/c1ccc(C(=O)O)cc1
